Data published in BindingDB's records for doi:10.1016/j.ejmech.2016.03.070 (China Medical University, 2016).

Assays:
[1] = Inhibition of full length human ABCB1 expressed in Flp-In-293 cells assessed as potentiation of paclitaxel-induced cytotoxicity by measuring paclitaxel IC50 at 10 uM after 72 hrs by SRB assay (Rvb = 644.78 +/- 2.6 nM)
[2] = Inhibition of full length human ABCB1 expressed in Flp-In-293 cells assessed as potentiation of doxorubicin-induced cytotoxicity by measuring doxorubicin IC50 at 10 uM after 72 hrs by SRB assay (Rvb = 914.83 +/- 15.85 nM)
[3] = Inhibition of full length human ABCB1 expressed in Flp-In-293 cells assessed as potentiation of vincristine-induced cytotoxicity by measuring vincristine IC50 at 8 uM after 72 hrs by SRB assay (Rvb = 823.13 +/- 15.79 nM)
[4] = Inhibition of full length human ABCB1 expressed in Flp-In-293 cells assessed as potentiation of doxorubicin-induced cytotoxicity by measuring doxorubicin IC50 at 8 uM after 72 hrs by SRB assay (Rvb = 914.83 +/- 15.85 nM)
[5] = Inhibition of full length human ABCB1 expressed in Flp-In-293 cells assessed as potentiation of paclitaxel-induced cytotoxicity by measuring paclitaxel IC50 at 8 uM after 72 hrs by SRB assay (Rvb = 644.78 +/- 2.6 nM)
[6] = Inhibition of full length human ABCB1 expressed in Flp-In-293 cells assessed as potentiation of vincristine-induced cytotoxicity by measuring vincristine IC50 at 10 uM after 72 hrs by SRB assay (Rvb = 823.13 +/- 15.79 nM)
[7] = Inhibition of ABCB1 in human KBVIN cells assessed as potentiation of paclitaxel-induced cytotoxicity by measuring paclitaxel IC50 at 10 uM after 72 hrs by SRB assay (Rvb = 1196.09 +/- 44.8 nM)
[8] = Inhibition of ABCB1 in human KBVIN cells assessed as potentiation of vincristine-induced cytotoxicity by measuring vincristine IC50 at 8 uM after 72 hrs by SRB assay (Rvb = 2867.34 +/- 142.36 nM)
[9] = Inhibition of ABCB1 in human KBVIN cells assessed as potentiation of vincristine-induced cytotoxicity by measuring vincristine IC50 at 10 uM after 72 hrs by SRB assay (Rvb = 2867.34 +/- 142.36 nM)
[10] = Inhibition of ABCB1 in human KBVIN cells assessed as potentiation of paclitaxel-induced cytotoxicity by measuring paclitaxel IC50 at 8 uM after 72 hrs by SRB assay (Rvb = 1196.09 +/- 44.8 nM)

`COc1ccc(-c2coc3c(c(O)cc4occ(-c5ccc(OC)cc5)c(=O)c43)c2=O)cc1` gave an IC50 [1] of 79 nM, an IC50 [2] of 544 nM and an IC50 [3] of 577 nM. The IC50 [4] was 576 nM, the IC50 [5] was 303 nM and the IC50 [6] was 500 nM.
`COc1ccc(-c2coc3c(c(O)cc4occ(-c5ccc(OC)c(OC)c5)c(=O)c43)c2=O)cc1OC` showed an IC50 [1] of 68 nM, an IC50 [2] of 594 nM and an IC50 [3] of 203 nM. The IC50 [4] was 597 nM, the IC50 [5] was 73 nM and the IC50 [6] was 85 nM.
Molecule `Cc1cccc(-c2coc3c(c(O)cc4occ(-c5cccc(C)c5)c(=O)c43)c2=O)c1` has an IC50 [1] of 40 nM, an IC50 [2] of 586 nM and an IC50 [3] of 53 nM. For the same molecule, the IC50 [7] was 52 nM, the IC50 [4] was 664 nM and the IC50 [8] was 390 nM. The IC50 [9] was 96 nM, the IC50 [5] was 60 nM and the IC50 [6] was 39 nM. For the same molecule, the IC50 [10] was 63 nM.
